The values that follow come from PMC3764824, “Base-modified Donor Analogues Reveal Novel Dynamic Features of a Glycosyltransferase” (The Journal of Biological Chemistry, 2013).

Data set [1] concerns the target T1, AAGlyB (GTA-L266G/G268A) (Homo sapiens, UniProt P16442, L266G/G268A).
T1 construct: gene ABO; soluble catalytic domain, N-terminally truncated (forward primer MIN2 encodes MVSLPRMVYPQP; C-terminus ...NP at residue 354), made in E. coli BL21-gold from pCWdeltalac; SP-Sepharose and UDP-hexanolamine-Sepharose; residues 58-354 stated ordered in UDP-HAA crystal
T1 sequence (P16442 64-354 L266G/G268A): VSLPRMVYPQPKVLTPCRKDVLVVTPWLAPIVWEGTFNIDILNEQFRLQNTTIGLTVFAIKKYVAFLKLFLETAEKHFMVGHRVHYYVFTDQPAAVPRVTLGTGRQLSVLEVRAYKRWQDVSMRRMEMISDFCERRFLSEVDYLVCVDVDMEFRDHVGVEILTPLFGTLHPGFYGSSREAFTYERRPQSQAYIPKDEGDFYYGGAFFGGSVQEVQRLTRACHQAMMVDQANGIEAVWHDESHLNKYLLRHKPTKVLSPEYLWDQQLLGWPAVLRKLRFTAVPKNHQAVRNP
In words: X-ray crystallography ([…] Å). Type of data set: binding. Particulars: ternary complex with HAA; UDP carried over from purification.

For data set [2], the target named is T2, AAGlyB (GTA-L266G/G268A) (Homo sapiens, UniProt P16442, G268A/L266G).
T2 construct: gene ABO; soluble catalytic domain, N-terminally truncated (forward primer MIN2 encodes MVSLPRMVYPQP; C-terminus ...NP at residue 354), made in E. coli BL21-gold from pCWdeltalac; SP-Sepharose and UDP-hexanolamine-Sepharose; residues 58-354 stated ordered in UDP-HAA crystal
T2 sequence (P16442 64-354 L266G/G268A): T1 sequence (P16442 64-354 L266G/G268A)
Description: radiochemical Sep-Pak assay, Dixon plot. Type of data set: biochemical. The settings on record: read-out: 2. An excerpt:
radiochemical Sep-Pak assay, Dixon plot on AAGlyB (GTA-L266G/G268A)

In data set [3] the target is T1, AAGlyB (GTA-L266G/G268A). In words: capillary electrophoresis with LIF detection. Type of data set: biochemical. The settings on record: labelled compound; co-substrate compound 2 (33.3 μM), CE assay, 20 mM MnCl2, MOPS pH 7.0, 37 °C. The text has this: (§1) capillary electrophoresis with LIF detection on AAGlyB (GTA-L266G/G268A)
Substrate in data set [4]: O=c1[nH]c(=O)n([C@@H]2O[C@H](COP(=O)(O)OP(=O)(O)O[C@H]3O[C@H](CO)[C@H](O)[C@H](O)[C@H]3O)[C@@H](O)[C@H]2O)cc1-c1ccccc1
Description: capillary electrophoresis with LIF detection. The class given is biochemical, Homo sapiens. Particulars: 50 μM tetramethylrhodamine-labeled HAA, 20 mM MnCl2, 50 mM MOPS pH 7.0, 37 °C.
From the text: as §1

For `O=c1ccn([C@@H]2O[C@H](COP(=O)(O)OP(=O)(O)O)[C@@H](O)[C@H]2O)c(=O)[nH]1` [UDP], the “X-ray crystallography (1.8 Å)” value in data set [1] was “The AAGlyB-UDP-HAA structure shows very well defined electron density”.

As to `O=c1[nH]c(=O)n([C@@H]2O[C@H](COP(=O)(O)OP(=O)(O)O[C@H]3O[C@H](CO)[C@H](O)[C@H](O)[C@H]3O)[C@@H](O)[C@H]2O)cc1-c1ccccc1` [compound 2, UDP-Gal derivative 2], the Ki in data set [2] amounted to 3 µM.

As to “α-Fucp-(1→2)-β-Galp-O-(CH2)8CONH(CH2)2NH-CO-tetramethylrhodamine”, the Km in data set [3] amounted to 56 ± 3 µM.

B1: AAGlyB (GTA-L266G/G268A) (Homo sapiens; G268A/L266G) (protein)
chain: T1 sequence (P16442 64-354 L266G/G268A)
notes: soluble catalytic domain, N-terminally truncated (forward primer MIN2 encodes …; C-terminus ...NP at residue 354), made in E. coli BL21-gold from pCWdeltalac; SP-Sepharose and UDP-hexanolamine-Sepharose; residues 58-354 stated ordered in UDP-HAA crystal
As for B1, in data set [4], the Km turned out to be 6.5 ± 0.5 µM and the kcat was 0.006 ± 0.0008 s⁻¹.
